The values below come from patent US11040035B2, “3-oxo-2,6-diphenyl-2,3-dihydropyridazine-4-carboxamides” (BAYER PHARMA AKTIENGESELLSCHAFT, priority 2016, dated 2021).

For this test, the target named is T1, AHR (Homo sapiens, UniProt P35869).
T1 sequence (P35869 11-848): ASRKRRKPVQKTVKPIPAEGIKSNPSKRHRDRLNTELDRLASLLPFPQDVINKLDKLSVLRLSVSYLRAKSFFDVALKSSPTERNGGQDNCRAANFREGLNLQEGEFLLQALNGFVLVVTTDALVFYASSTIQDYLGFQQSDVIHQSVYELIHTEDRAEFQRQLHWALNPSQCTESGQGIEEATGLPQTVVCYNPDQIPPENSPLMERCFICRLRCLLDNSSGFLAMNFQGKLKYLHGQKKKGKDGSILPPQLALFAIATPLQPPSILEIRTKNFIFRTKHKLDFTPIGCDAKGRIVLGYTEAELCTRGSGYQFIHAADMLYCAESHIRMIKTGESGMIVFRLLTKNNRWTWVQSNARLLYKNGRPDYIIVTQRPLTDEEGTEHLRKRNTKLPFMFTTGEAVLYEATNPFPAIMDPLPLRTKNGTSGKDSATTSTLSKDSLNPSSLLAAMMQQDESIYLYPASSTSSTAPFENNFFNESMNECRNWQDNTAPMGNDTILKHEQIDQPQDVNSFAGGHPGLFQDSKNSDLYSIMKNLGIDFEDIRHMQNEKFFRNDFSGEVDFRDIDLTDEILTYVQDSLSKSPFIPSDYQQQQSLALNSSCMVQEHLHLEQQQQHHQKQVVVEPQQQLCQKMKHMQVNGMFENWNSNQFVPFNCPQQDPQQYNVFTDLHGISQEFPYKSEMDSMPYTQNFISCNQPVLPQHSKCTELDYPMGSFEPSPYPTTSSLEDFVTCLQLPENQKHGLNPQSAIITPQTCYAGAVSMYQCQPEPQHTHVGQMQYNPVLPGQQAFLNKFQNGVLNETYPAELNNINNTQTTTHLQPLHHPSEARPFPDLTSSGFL
In words: In vitro assay 1: antagonism in human cell line (transactivation assay, kynurenic acid prestimulated). The conditions noted are these: Assay 1: AHR-luc Hum Antagonism IC50 [M], 150 μM kynurenic acid, 20 hours, firefly luciferase.

Where only a bound is given, the exact number is not on record here.

As to `Cc1ccc(-c2cc(C(=O)N[C@H](CO)C(C)C)c(=O)n(-c3ccccc3)n2)cc1` [Example 71, N-[(2S)-1-hydroxy-3-methylbutan-2-yl]-6-(4-methylphenyl)-3-oxo-2-phenyl-2,3-dihydropyridazine-4-carboxamide], the IC50 turned out to be 4.05e-08 M.
Turning to `Cc1ccc(-c2cc(C(=O)N[C@H](C)CO)c(=O)n(-c3cccc(F)c3)n2)cc1C` [Example 90, 6-(3,4-dimethylphenyl)-2-(3-fluorophenyl)-N-[(2R)-1-hydroxypropan-2-yl]-3-oxo-2,3-dihydropyridazine-4-carboxamide], the midpoint of inhibition, the IC50, lay at 6.75e-07 M.
On to `Cc1ccc(-c2cc(C(=O)NC(CO)C(C)C)c(=O)n(-c3cccc(F)c3)n2)cc1C` (stereo not drawn) [Example 82, 6-(3,4-dimethylphenyl)-2-(3-fluorophenyl)-N-(1-hydroxy-3-methylbutan-2-yl)-3-oxo-2,3-dihydropyridazine-4-carboxamide], for which the midpoint of inhibition, the IC50, lay at 1.03e-07 M.
`COCCC(CO)NC(=O)c1cc(-c2ccc(C(F)(F)F)cc2)nn(-c2cccc(F)c2)c1=O` (single isomer, unassigned; (+)) [Example 332, (+)-2-(3-fluorophenyl)-N-(1-hydroxy-4-methoxybutan-2-yl)-3-oxo-6-[4-(trifluoromethyl)phenyl]-2,3-dihydropyridazine-4-carboxamide] showed a half-maximal inhibitory concentration (IC50) of 6.06e-08 M.
The compound `O=C(NC(CO)C1CCCO1)c1cc(-c2ccc(Cl)cc2)nn(-c2cccc(F)c2)c1=O` (single isomer, unassigned) [Example 318, 1,4-anhydro-5-({[6-(4-chlorophenyl)-2-(3-fluorophenyl)-3-oxo-2,3-dihydropyridazin-4-yl]carbonyl}amino)-2,3,5-trideoxyhexitol] had a 50% inhibitory concentration (IC50) of 5.34e-08 M.
As to `C[C@H](CO)NC(=O)c1cc(-c2ccc(Cl)cc2)nn(-c2ccccc2)c1=O` [Example 81, 6-(4-chlorophenyl)-N-[(2R)-1-hydroxypropan-2-yl]-3-oxo-2-phenyl-2,3-dihydropyridazine-4-carboxamide], the IC50 worked out at 1.12e-06 M.
`O=C(NC(CO)C1CCCO1)c1cc(-c2ccc(C(F)(F)F)cc2)nn(-c2cccc(F)c2)c1=O` (single isomer, unassigned) [Example 354, 1,4-anhydro-2,3,5-trideoxy-5-[({2-(3-fluorophenyl)-3-oxo-6-[4-(trifluoromethyl)phenyl]-2,3-dihydropyridazin-4-yl}carbonyl)amino]hexitol] yielded an IC50 of 1.41e-08 M.
To `O=C(NC(CO)C1CCCO1)c1cc(-c2ccc(C(F)(F)F)cc2)nn(-c2cccc(F)c2)c1=O` (single isomer, unassigned) [Example 353, 1,4-anhydro-2,3,5-trideoxy-5-[({2-(3-fluorophenyl)-3-oxo-6-[4-(trifluoromethyl)phenyl]-2,3-dihydropyridazin-4-yl}carbonyl)amino]hexitol] belongs 2e-08 M; to `O=C(NC(CO)C1CCCO1)c1cc(-c2ccc(Cl)cc2)nn(-c2cccc(F)c2)c1=O` (single isomer, unassigned) [Example 319, 1,4-anhydro-5-({[6-(4-chlorophenyl)-2-(3-fluorophenyl)-3-oxo-2,3-dihydropyridazin-4-yl]carbonyl}amino)-2,3,5-trideoxyhexitol], 5.02e-08 M; to `CC(C)C(O)CNC(=O)c1cc(-c2ccc(Cl)cc2)nn(-c2cccc(Cl)c2)c1=O` (stereo not drawn) [Example 67, 2-(3-Chlorophenyl)-6-(4-chlorophenyl)-N-(2-hydroxy-3-methylbutyl)-3-oxo-2,3-dihydropyridazine-4-carboxamide], 3.89e-07 M.
As to `Cc1ccc(-c2cc(C(=O)NC(C)CO)c(=O)n(-c3ccccc3)n2)cc1` (stereo not drawn) [Example 73, N-(1-hydroxypropan-2-yl)-6-(4-methylphenyl)-3-oxo-2-phenyl-2,3-dihydropyridazine-4-carboxamide], the IC50 was 3.07e-07 M.
The figure for `O=C(NC(CO)C1CCCO1)c1cc(-c2ccc(Cl)cc2)nn(-c2cccc(F)c2)c1=O` (single isomer, unassigned) [Example 317, 1,4-anhydro-5-({[6-(4-chlorophenyl)-2-(3-fluorophenyl)-3-oxo-2,3-dihydropyridazin-4-yl]carbonyl}amino)-2,3,5-trideoxyhexitol] is 1.77e-07 M.
For `CC(C)[C@@H](CO)NC(=O)c1cc(-c2ccc(Cl)cc2)nn(-c2cccc(Cl)c2)c1=O` [Example 59, 2-(3-Chlorophenyl)-6-(4-chlorophenyl)-N-[(2S)-1-hydroxy-3-methylbutan-2-yl]-3-oxo-2,3-dihydropyridazine-4-carboxamide], the IC50 was 4.96e-08 M.
In the case of `O=C(NCC(O)C(F)(F)F)c1cc(-c2ccc(Cl)cc2)nn(-c2cccc(Cl)c2)c1=O` (stereo not drawn) [Example 62, 2-(3-Chlorophenyl)-6-(4-chlorophenyl)-3-oxo-N-(3,3,3-trifluoro-2-hydroxypropyl)-2,3-dihydropyridazine-4-carboxamide], the IC50 came out at 1.5e-07 M.
In the case of `CC[C@H](CO)NC(=O)c1cc(-c2ccc(C)c(C)c2)nn(-c2cccc(F)c2)c1=O` [Example 87, 6-(3,4-dimethylphenyl)-2-(3-fluorophenyl)-N-[(2R)-1-hydroxybutan-2-yl]-3-oxo-2,3-dihydropyridazine-4-carboxamide], the IC50 was determined as 7.26e-07 M.
Compound `CC(NC(=O)c1cc(-c2ccc(C(F)(F)F)cc2)nn(-c2cccc(F)c2)c1=O)C(O)C(F)(F)F` (single isomer, unassigned) [Example 268, Isomer no. 1 of 2-(3-fluorophenyl)-3-oxo-N-(4,4,4-trifluoro-3-hydroxybutan-2-yl)-6-[4-(trifluoromethyl)phenyl]-2,3-dihydropyridazine-4-carboxamide] gave an IC50 of more than 2e-05 M.
`Cc1ccc(-c2cc(C(=O)NC(C)CO)c(=O)n(-c3cccc(F)c3)n2)cc1C` (stereo not drawn) [Example 88, 6-(3,4-dimethylphenyl)-2-(3-fluorophenyl)-N-(1-hydroxypropan-2-yl)-3-oxo-2,3-dihydropyridazine-4-carboxamide] registered a half-inhibitory concentration (IC50) of 1.46e-07 M.
Turning to `CC[C@@H](CO)NC(=O)c1cc(-c2ccc(Cl)cc2)nn(-c2cccc(Cl)c2)c1=O` [Example 60, 2-(3-Chlorophenyl)-6-(4-chlorophenyl)-N-[(2S)-1-hydroxybutan-2-yl]-3-oxo-2,3-dihydropyridazine-4-carboxamide], the half-inhibitory concentration (IC50) stood at 6.6e-08 M.
`Cc1ccc(-c2cc(C(=O)NCCO)c(=O)n(-c3cccc(F)c3)n2)cc1` [Example 19, 2-(3-Fluorophenyl)-N-(2-hydroxyethyl)-6-(4-methylphenyl)-3-oxo-2,3-dihydropyridazine-4-carboxamide] returned an IC50 of 3.91e-07 M.
On to `Cc1ccc(-c2cc(C(=O)NCCO)c(=O)n(-c3ccccc3)n2)cc1` [Example 74, N-(2-hydroxyethyl)-6-(4-methylphenyl)-3-oxo-2-phenyl-2,3-dihydropyridazine-4-carboxamide], for which half-maximal inhibition (IC50) required 2.1e-06 M.
Turning to `CCC(CO)NC(=O)c1cc(-c2ccc(C)c(C)c2)nn(-c2cccc(F)c2)c1=O` (stereo not drawn) [Example 85, 6-(3,4-dimethylphenyl)-2-(3-fluorophenyl)-N-(1-hydroxybutan-2-yl)-3-oxo-2,3-dihydropyridazine-4-carboxamide], the half-inhibitory concentration (IC50) is 8.61e-08 M.
With `O=C(NC(CO)C1CCCO1)c1cc(-c2ccc(C(F)(F)F)cc2)nn(-c2cccc(F)c2)c1=O` (single isomer, unassigned) [Example 355, 1,4-anhydro-2,3,5-trideoxy-5-[({2-(3-fluorophenyl)-3-oxo-6-[4-(trifluoromethyl)phenyl]-2,3-dihydropyridazin-4-yl}carbonyl)amino]hexitol], it took 1.2e-07 M to reach half-maximal inhibition (IC50).
`Cc1ccc(-c2cc(C(=O)N[C@H](C)CO)c(=O)n(-c3cccc(F)c3)n2)cc1` [Example 9, 2-(3-Fluorophenyl)-N-[(2R)-1-hydroxypropan-2-yl]-6-(4-methylphenyl)-3-oxo-2,3-dihydropyridazine-4-carboxamide] came in with an IC50 of 1.81e-07 M.
`CC(CO)NC(=O)c1cc(-c2ccc(Cl)cc2)nn(-c2ccccc2)c1=O` (stereo not drawn) [Example 79, 6-(4-chlorophenyl)-N-(1-hydroxypropan-2-yl)-3-oxo-2-phenyl-2,3-dihydropyridazine-4-carboxamide] displayed a half-maximal inhibitory concentration (IC50) of 2.82e-07 M.
Turning to `CC(CO)NC(=O)c1cc(-c2ccc(Cl)cc2)nn(-c2cccc(F)c2)c1=O` (stereo not drawn) [Example 22, 6-(4-Chlorophenyl)-2-(3-fluorophenyl)-N-(1-hydroxypropan-2-yl)-3-oxo-2,3-dihydropyridazine-4-carboxamide], the IC50 came to 8.39e-08 M.
Consider `CC(C)C[C@@H](CO)NC(=O)c1cc(-c2ccc(Cl)cc2)nn(-c2cccc(Cl)c2)c1=O` [Example 61, 2-(3-Chlorophenyl)-6-(4-chlorophenyl)-N-[(2S)-1-hydroxy-4-methylpentan-2-yl]-3-oxo-2,3-dihydropyridazine-4-carboxamide], for which the IC50 is 5.14e-07 M.
In turn, `Cc1ccc(-c2cc(C(=O)N[C@@H](CO)C(C)C)c(=O)n(-c3ccccc3)n2)cc1` [Example 72, N-[(2R)-1-hydroxy-3-methylbutan-2-yl]-6-(4-methylphenyl)-3-oxo-2-phenyl-2,3-dihydropyridazine-4-carboxamide] came in with an IC50 of 2.11e-06 M.
